Assay results: patent US20230219886A1, “NOVEL SELENO-NSAID ANALOGS AND USES THEREOF” (THE PENN STATE RESEARCH FOUNDATION, priority 2020, published 2023)
Read-outs that look alike come from different tables or passages of the source.

Legend:
[1] = system: BT-549 (breast); test: NCI-60 one-dose screen, BT-549; assay type: cell-based, human; settings: BT-549, 10 μM, 48 h
Excerpt: (§1) NCI-60 Analysis. 1a and 6a were submitted to National Cancer Institute's (NCI) Developmental Therapeutics Program (DTP) where the cytotoxicity profile was investigated across their 60 human cancer cell line panel according to the protocol available on multiple sources (71-73, 83). The COMPARE algorithm (73), was utilized to evaluate the activity profile of 6a in comparison to those of known cytotoxins established in marketed drugs and standard agent data sets in order to correlate plausible modes of action.
(§2) NCI-60 analysis. Compounds 1a, 5a and 6a were submitted to the National Cancer Institute's (NCI) Developmental Therapeutics Program (DTP). NCI-60 program consists in a panel of 60 human cancer cell lines from a variety of cancers, including refractory tumors such as lung, ovarian, CRC, breast, brain and renal cancers, and melanomas together with more treatable cancers such as leukemias (71). 1a [NSC: 803071], 5a [NSC: 820332] and 6a [NSC: 811013] were initially screened at one dose (10 μM) at 48 h. Then, NCI selected only compound 6a to perform dose-response characterization (72).

[2] = system: NCI-60 cell lines; test: NCI-60 one-dose screen, mean of all cell lines; assay type: cell-based, human; settings: 10 μM, 48 h
Excerpt: as §1, §2

[3] = system: DU-145 (prostate); test: NCI-60 one-dose screen, DU-145; assay type: cell-based, human; settings: DU-145, 10 μM, 48 h
Excerpt: as §1, §2

[4] = system: TK-10 (renal); test: NCI-60 one-dose screen, TK-10; assay type: cell-based, human; settings: TK-10, 10 μM, 48 h
Excerpt: as §1, §2

[5] = system: H1299 (lung carcinoma); test: MTT cell viability assay, H1299; settings: Homo sapiens, NCI-H1299, 48 h, read-out: cell viability
Protocol: (§3) Cell Culture Conditions. The cell lines were obtained from the American Type Culture Collection (ATCC). PANC-1 and Caco-2 cell lines were maintained in DMEM medium (Gibco); HT-29, HCT-116 and RKO cells were maintained in McCoy's 5A medium (Gibco); and DU-145 and H1299 cells were maintained in RPMI 1640 medium (Gibco), supplemented with 10% fetal bovine serum (FBS; Gibco) and 1% antibiotics (10.00 units/mL penicillin and 10.00 mg/mL streptomycin; Gibco). Cells were preserved in tissue culture flasks at 37° C. and 5% CO2. Culture medium was replaced every three days.
(§4) Cell Viability Assay. The effect of each compound on cell viability was tested using the MTT assay (81). Briefly, 9000 cells/well were grown in 96-well plates for 12 h. Then these cells were incubated with either DMSO (control) or nine different concentration between 0.01-50 μM of the test compounds for 24, 48, and 72 h. Three hours before the termination point, 20 μL of MTT were added to measure cellular viability. The resultant formazan crystals were dissolved in 50 μL of DMSO, and absorbance was measured at 570 nm and 630 nm wavelengths. IC50, GI50, TGI and LC50 values were calculated using OriginPro 8.5.1.
(§5) Evaluation of the antiproliferative activities of the novel molecules. […] These four cell lines were treated with each compound at three concentrations (5, 25 and 50 μM) for 48 h.

[6] = system: PANC-1 (pancreatic carcinoma); test: MTT cell viability assay, Panc-1; settings: Homo sapiens, PANC-1, 48 h, read-out: cell viability
Protocol: as §3, §4, §5

[7] = system: human CRC cells (HT-29, HCT-116, RKO and CACO-2); test: MTT assay, panel of four CRC cells; assay type: cell-based; settings: 4 CRC cells
Protocol: Cell Culture Conditions. […] Culture medium was replaced every three days.
Evaluation of the antiproliferative activity of methylseleno-NSAIDs, MSA and NSAIDs alone or in combination. […] CRC cells were treated for 24, 48 and 72 h at different concentrations to stablish the dose-response curves.

[8] = system: SK-MEL-28 (melanoma); test: NCI-60 one-dose screen, SK-MEL-28; assay type: cell-based, human; settings: SK-MEL-28, 10 μM, 48 h
Excerpt: as §1, §2

[9] = system: HCT-116 CRC cells; test: MTT cell viability assay, HCT-116; assay type: cell-based, human; settings: Homo sapiens, read-out: IC50
Protocol: as §3, §4

[10] = system: DU-145 (prostate carcinoma); test: MTT cell viability assay, DU-145; settings: Homo sapiens, DU-145, 48 h, read-out: cell viability
Protocol: as §3, §4, §5

[11] = system: HT-29 (CRC); test: MTT cell viability assay, HT-29; settings: for CC50: read-out: LC50
Protocol: as §3, §4, §5

[12] = system: RKO CRC cells; test: cells; settings: Homo sapiens
Protocol: as §3, §4

[13] = system: CACO-2 CRC cells; test: cells; settings: Homo sapiens
Protocol: as §3, §4

[14] = Homo sapiens, HT-29, 48 h, read-out: cell viability

COc1ccc2c(c1)c(CC(=O)[Se]C)c(C)n2C(=O)c1ccc(Cl)cc1 [Compound 5a, Se-methyl 2-(1-(4-chlorobenzoyl)-5-methoxy-2-methyl-1H-indol-3-yl)ethane-selenoate]
GP [1]: −80.79%
GP mean value towards all cell lines [2]: 4.01%
GP [3]: −7.90%
GP [4]: −58.40%
viability at 5 µM [5]: 49.5 ± 9.4%
viability at 25 µM [5]: 37 ± 5.6%
viability at 50 µM [5]: 32.4 ± 5.8%
viability at 5 µM [6]: 61.9 ± 4.4%
viability at 25 µM [6]: 66.6 ± 1.9%
viability at 50 µM [6]: 60.2 ± 5.5%
anti-tumoral activity versus MSA and NSAIDs as single agents or combined [7]: higher anti-tumoral activity
GP [8]: −7.85%
IC50 ([9]; HCT-116, 24 h): > 50 µM
IC50 ([9]; HCT-116, 48 h): 5.6 ± 2.6 µM
IC50 ([9]; HCT-116, 72 h): 18.7 ± 4.9 µM
viability at 5 µM [10]: 52.1 ± 1.5%
viability at 25 µM [10]: 34.5 ± 3%
viability at 50 µM [10]: 27.4 ± 1.7%
increase on cytotoxic potency compared with parent NSAID scaffolds [11]: three-fold
TGI ([11]; HT-29, 24 h): >50 µM
TGI ([11]; HT-29, 48 h): 0.6 ± 0.5 µM
TGI ([11]; HT-29, 72 h): 5.1 ± 2.2 µM
GI50 ([11]; Homo sapiens, HT-29, 24 h): 4.9 ± 2.2 µM
IC50 ([11]; Homo sapiens, HT-29, 24 h): > 50 µM
CC50 ([11]; Homo sapiens, HT-29, 24 h): > 50 µM
GI50 ([11]; Homo sapiens, HT-29, 48 h): 3.2 ± 1.9 µM
IC50 ([11]; Homo sapiens, HT-29, 48 h): 3.3 ± 0.9 µM
CC50 ([11]; Homo sapiens, HT-29, 48 h): > 50 µM
viability at 5 µM [11, 14]: 26.3 ± 2.9%
viability at 25 µM [11, 14]: 17.9 ± 3.7%
viability at 50 µM [11, 14]: 18 ± 3.5%
GI50 ([11]; Homo sapiens, HT-29, 72 h): 2.9 ± 0.8 µM
IC50 ([11]; Homo sapiens, HT-29, 72 h): 3.3 ± 0.3 µM
CC50 ([11]; Homo sapiens, HT-29, 72 h): > 50 µM
cytotoxicity at 5 µM ([11]; Homo sapiens, HT-29, read-out: inhibition in cell viability): 75 to 80%
IC50 ([12]; 24 h): > 50 µM
IC50 ([12]; 48 h): 10.1 ± 6.9 µM
IC50 ([12]; 72 h): 11.6 ± 5.9 µM
IC50 ([13]; Caco-2, 24 h): > 50 µM
IC50 ([13]; Caco-2, 48 h): 4.2 ± 1.7 µM
IC50 ([13]; Caco-2, 72 h): 5.5 ± 1.1 µM
